Measurements taken from patent publication US11203586B2, “Iridinesulfonamide compound and use method thereof” (Chia Tai Tianqing Pharmaceutical Group Co., Ltd., priority 2016, dated 2021).

Target: IDH1 (R132H) (Homo sapiens (Human), UniProt O75874, R132H)
Assay: Enzyme assay, NADPH decrease detected with Diaphorase/Resazurin
Assay type: biochemical
Conditions: 40 nM enzyme, 20 μM NADPH, incubated at 23° C. for 16 hours before α-KG; 12 concentrations
Text: Resazurin is a traditional redox dye, and after a redox reaction, it can be reduced from a blue resazurin without fluorescence to a pink fluorescent substance, resorufin, which can be measured and quantified with relative fluorescence unit (RFU) of fluorophotometer (Ex=530-570 nm, Em=590-620 nm). At present, resazurin is widely used for determining the viability of bacteria, cells, etc. and the enzyme activity detection of oxidoreductase. We detected the decrease of cofactor NADPH to determine the inhibitory activity of a compound against IDHm and detected the generation of cofactor NADPH to determine the inhibitory activity of a compound against IDH WT.
The compound was pre-incubated with IDHm and NADPH, and then the reaction was initiated by adding α-KG and performed for certain time under a linear condition.
Then, Diaphorase (lipoamide dehydrogenase) and the corresponding substrate Resazurin were added thereto for detection. Lipoamide dehydrogenase terminated the IDH2m reaction by decreasing the available cofactor NADPH, which oxidized NADPH to NADP, and reduced resazurin to high fluorescent resorufin. The amount of the remaining cofactor NADPH after a specific reaction time was quantified via an easily detectable fluorophore.
The specific operation was as follows: 2.5 μl of the compound diluted in a 3-fold gradient was added to a 384-well plate, followed by adding 5 μL of the reaction buffer (20 mM Tris-HCl, pH 7.5; 150 mM NaCl; 10 mM MgCl2; 0.4 mg/mL BSA (Bovine Serum Albumin) and 2 mM DTT (dithiothreitol)) containing 40 nM IDH1 (R132H/R132C) and 20 μM NADPH. Then, the above test mixture was incubated at 23° C. for 16 hours, and then 2.5 μL of the reaction buffer containing 4 mM α-KG was added to initiate the reaction. After they were incubated for 60 minutes at room temperature, 5 μL of the termination mixture (0.4 U/ml Diaphorase and 20 μM Resazurin) formulated with the reaction buffer was added to convert resazurin to resorufin, so as to measure the amount of the remaining NADPH. After incubating at 23° C. for 10 minutes, fluorescence values were determined through Flexstation 3 at Ex535/Em595. The enzyme activity of each compound was respectively determined at 12 concentrations, and the data were calculated using the software GraFit6.0 (Erithacus Software) to obtain the IC50 value of each compound.

IDH1 (R132H), sequence (O75874 whole entry R132H): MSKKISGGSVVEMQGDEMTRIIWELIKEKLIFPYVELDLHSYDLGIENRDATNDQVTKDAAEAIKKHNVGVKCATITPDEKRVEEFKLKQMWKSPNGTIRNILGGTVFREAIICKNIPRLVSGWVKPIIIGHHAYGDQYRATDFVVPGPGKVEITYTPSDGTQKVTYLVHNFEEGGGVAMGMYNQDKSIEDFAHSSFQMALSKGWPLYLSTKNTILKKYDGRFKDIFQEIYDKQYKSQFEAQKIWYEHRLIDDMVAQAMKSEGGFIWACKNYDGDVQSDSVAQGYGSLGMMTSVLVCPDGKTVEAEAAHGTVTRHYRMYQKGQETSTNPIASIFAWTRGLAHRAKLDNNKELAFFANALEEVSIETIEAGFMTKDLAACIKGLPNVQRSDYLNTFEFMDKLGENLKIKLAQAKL

Compound | IC50 [nM]
O=C(NC1CCCCC1)C(c1ccccc1Cl)N(C(=O)CCNS(=O)(=O)N1CC1)c1cccc(F)c1 (centres unmarked) [Example 5, 3-(aziridine-1-sulfonylamino)-N-(1-(2-chlorophenyl)-2-(cyclohexylamino)-2-oxoethyl)-N-(3-fluorophenyl)propanamide] | < 20
O=C(NC1CCCCC1)C(c1ccccc1Cl)N(C(=O)CS(=O)(=O)N1CC1)c1cccc(F)c1 (centres unmarked) [Example 15, 2-(aziridin-1-ylsulfonyl)-N-(1-(2-chlorophenyl)-2-(cyclohexylamino)-2-oxoethyl)-N-(3-fluorophenyl)acetamide] | < 20
CN(CC(=O)N(c1cccc(F)c1)C(C(=O)NC1CCCCC1)c1ccccc1Cl)S(=O)(=O)N1CC1 (centres unmarked) [Example 12, 2-(2-chlorophenyl)-N-cyclohexyl-2-(N-(3-fluorophenyl)-2-(N-methylaziridine-1-sulfonylamino)acetamido)acetamide] | < 20
O=C(NC1CCCCC1)C(c1ccccc1Cl)N(C(=O)CNS(=O)(=O)N1CC1)c1cc(F)cc(F)c1 (centres unmarked) [Example 16, 2-(aziridine-1-sulfonylamino)-N-(1-(2-chlorophenyl)-2-(cyclohexylamino)-2-oxoethyl)-N-(3,5-difluorophenyl)acetamide] | < 20
C[C@@H](NS(=O)(=O)N1CC1)C(=O)N(c1cccc(F)c1)[C@@H](C(=O)NC1CCCCC1)c1ccccc1Cl [Example 3, (R)-2-(aziridine-1-sulfonylamino)-N—((R)-(2-chlorophenyl)-2-(cyclohexylamino)-2-oxoethyl)-N-(3-fluorophenyl)propanamide] | < 10000
O=C(NC1CCCCC1)C(c1ccccc1Cl)N(C(=O)CCS(=O)(=O)N1CC1)c1cccc(F)c1 (centres unmarked) [Example 6, 3-(aziridin-1-ylsulfonyl)-N-(1-(2-chlorophenyl)-2-(cyclohexylamino)-2-oxoethyl)-N-(3-fluorophenyl)propanamide] | < 20
O=C(NC1CCCCC1)[C@H](c1ccccc1Cl)N(C(=O)[C@@H]1CCCN1S(=O)(=O)N1CC1)c1cccc(F)c1 [Example 19, (S)-1-(aziridin-1-ylsulfonyl)-N—((S)-1-(2-chlorophenyl)-2-(cyclohexylamino)-2-oxoethyl)-N-(3-fluorophenyl)pyrrolidine-2-carboxamide] | < 100
O=C(NC1CCCCC1)C(c1ccccc1Cl)N(C(=O)C1CC(NS(=O)(=O)N2CC2)C1)c1cccc(F)c1 (centres unmarked) [Example 22, 3-(aziridine-1-sulfonylamino)-N-(1-(2-chlorophenyl)-2-cyclohexylamino-2-oxoethyl)-N-(3-fluorophenyl)cyclobutyl carboxamide] | < 20
O=C(NC1CCCCC1)C(c1ccccc1Cl)N(C(=O)CNS(=O)(=O)N1CC1)c1cncc(F)c1 (centres unmarked) [Example 17, 2-(aziridine-1-sulfonylamino)-N-(1-(2-chlorophenyl)-2-(cyclohexylamino)-2-oxoethyl)-N-(5-fluoropyridin-3-yl)acetamide] | < 20
O=C(NC1CC(F)(F)C1)C(c1ccccc1Cl)N(C(=O)CNS(=O)(=O)N1CC1)c1cccc(C(F)(F)F)c1 (centres unmarked) [Example 23, 2-(aziridine-1-sulfonylamino)-N-(1-(2-chlorophenyl)-2-((3,3-difluorocyclobutyl)amino)-2-oxoethyl)-N-(3-trifluoromethylphenyl)acetamide] | < 100
O=C(NC1CCCCC1)C(c1ccccc1Cl)N(C(=O)C1CN(S(=O)(=O)N2CC2)C1)c1cccc(F)c1 (centres unmarked) [Example 24, 1-(aziridin-1-ylsulfonyl)-N-(1-(2-chlorophenyl)-2-cyclohexylamino-2-oxoethyl)-N-(3-fluorophenyl)azetidine-3-carboxamide] | < 20
NS(=O)(=O)c1cccc(N(C(=O)CNS(=O)(=O)N2CC2)C(C(=O)NC2CC(F)(F)C2)c2ccccc2Cl)c1 (centres unmarked) [Example 28, 2-(aziridine-1-sulfonylamino)-N-(1-(2-chlorophenyl)-2-((3,3-difluorocyclobutyl)amino)-2-oxoethyl)-N-(3-aminosulfonylphenyl)acetamide] | < 100
O=C(NC1CC(F)(F)C1)[C@@H](c1ccccc1Cl)N(C(=O)[C@H]1CCN(S(=O)(=O)N2CC2)C1)c1cccc(F)c1 [Example 35, (S)-1-(aziridin-1-ylsulfonyl)-N—((R)-1-(2-chlorophenyl)-2-((3,3-difluorocyclobutyl)amino)-2-oxoethyl)-N-(3-fluorophenyl)pyrrolidine-3-carboxamide] | < 20
C[C@@H]1CN1S(=O)(=O)NCC(=O)N(c1cccc(F)c1)C(C(=O)NC1CCCCC1)c1ccccc1Cl (stereo partly drawn) [Example 31, 2-(2-chlorophenyl)-N-cyclohexyl-2-(N-(3-fluorophenyl)-2-(((R)-2-methylaziridine)-1-sulfonylamino)acetamido)acetamide] | < 20
C[C@H]1CN1S(=O)(=O)NCC(=O)N(c1cc(F)cc(C#N)c1)C(C(=O)NC1CC(F)(F)C1)c1ccccc1Cl (stereo partly drawn) [Example 33, 2-(2-chlorophenyl)-2-(N-(3-cyano-5-fluorophenyl)-2-(((S)-2-methylaziridine)-1-sulfonylamino)acetamido)-N-(3,3-difluorocyclobutyl)acetamide] | < 100
O=C(NC1CC(F)(F)C1)[C@@H](c1ccccc1Cl)N(C(=O)CNS(=O)(=O)N1CC1)c1cccc(F)c1 [Example 26, (R)-2-(aziridine-1-sulfonylamino)-N-(1-(2-chlorophenyl)-2-((3,3-difluorocyclobutyl)amino)-2-oxoethyl)-N-(3-fluorophenyl)acetamide] | < 100
CC(C)[C@@H]1CN1S(=O)(=O)NCC(=O)N(c1cccc(F)c1)C(C(=O)NC1CCCCC1)c1ccccc1Cl (stereo in doubt) [Example 9, 2-(2-chlorophenyl)-N-cyclohexyl-2-(N-(3-fluorophenyl)-2-((R)-2-isopropylaziridine-1-sulfonylamino)acetamido)acetamide] | < 100
C[C@H](NS(=O)(=O)N1CC1)C(=O)N(c1cccc(F)c1)C(C(=O)NC1CCCCC1)c1ccccc1Cl (some centres unmarked) [Example 2, (2)-2-(aziridine-1-sulfonylamino)-N-(1-(2-chlorophenyl)-2-(cyclohexylamino)-2-oxoethyl)-N-(3-fluorophenyl)propanamide] | < 500
O=C(NC1CCCCC1)C(c1ccccc1Cl)N(C(=O)CCCS(=O)(=O)N1CC1)c1cccc(F)c1 (centres unmarked) [Example 21, 4-(aziridin-1-ylsulfonyl)-N-(1-(2-chlorophenyl)-2-(cyclohexylamino)-2-oxoethyl)-N-(3-fluorophenyl)butanamide] | < 20
CC(C)[C@@H]1CN1S(=O)(=O)N(CC(=O)N(c1cccc(F)c1)C(C(=O)NC1CCCCC1)c1ccccc1Cl)C(=O)OC(C)(C)C (some centres unmarked) [Example 7] | < 10000
O=C(NC1CCCCC1)[C@@H](c1ccccc1Cl)N(C(=O)[C@@H]1CCCN1S(=O)(=O)N1CC1)c1cccc(F)c1 [Example 18, (S)-1-(aziridin-1-ylsulfonyl)-N—((R)-1-(2-chlorophenyl)-2-(cyclohexylamino)-2-oxoethyl)-N-(3-fluorophenyl)pyrrolidine-2-carboxamide] | < 10000
O=C(NC1CC(F)(F)C1)C(c1ccccc1Cl)N(C(=O)CNS(=O)(=O)N1CC1)c1ccc(F)c(F)c1 (centres unmarked) [Example 29, 2-(aziridine-1-sulfonylamino)-N-(1-(2-chlorophenyl)-2-((3,3-difluorocyclobutyl)amino)-2-oxoethyl)-N-(3,4-difluorophenyl)acetamide] | < 20
O=C(NC1CC(F)(F)C1)C(c1ccccc1Cl)N(C(=O)CCCNS(=O)(=O)N1CC1)c1cccc(F)c1 (centres unmarked) [Example 13, 4-(aziridine-1-sulfonylamino)-N-(1-(2-chlorophenyl)-2-((3,3-difluorocyclobutyl)amino)-2-oxoethyl)-N-(3-fluorophenyl)butanamide] | < 20
O=C(NC1CC(F)(F)C1)[C@@H](c1ccccc1Cl)N(C(=O)[C@@H]1CCN(S(=O)(=O)N2CC2)C1)c1cccc(F)c1 [Example 37, (R)-1-(aziridin-1-ylsulfonyl)-N—((R)-1-(2-chlorophenyl)-2-((3,3-difluorocyclobutyl)amino)-2-oxoethyl)-N-(3-fluorophenyl)pyrrolidine-3-carboxamide] | < 1000
O=C(NC1CCCCC1)C(c1ccccc1Cl)N(C(=O)CNS(=O)(=O)N1CC1)c1cccc(F)c1 (centres unmarked) [Example 1, 2-(aziridinyl-1-sulfonylamino)-N-(1-(2-chlorophenyl)-2-(cyclohexylamino)-2-oxoethyl)-N-(3-fluorophenyl)acetamide] | < 20
O=C(NC1CCCCC1)C(c1ccccc1Cl)N(C(=O)CCCCS(=O)(=O)N1CC1)c1cccc(F)c1 (centres unmarked) [Example 20, 5-(aziridin-1-ylsulfonyl)-N-(1-(2-chlorophenyl)-2-(cyclohexylamino)-2-oxoethyl)-N-(3-fluorophenyl)pentanamide] | < 20
